Each structure is given as a SMILES string.

This test addresses T1, recombinant His-tag Y220C p53 DBD protein (Homo sapiens, UniProt P04637, Y220C).
T1 construct: recombinant His-tag Y220C p53 DBD protein (amino acids #˜94-312)
The test can be described thus: In vitro DNA binding activity assay (TR-FRET): binding of His-tag Y220C p53 DBD to biotin-labeled consensus DNA. The format is biochemical. To be noted: SC150 = concentration to increase DNA binding by […], His-tag Y220C p53 DBD, biotin-labeled consensus DNA. In general terms: TR-FRET usually uses a lanthanide donor and a delayed reading to cut background.
Take `CN(Cc1nc(-c2cc3c(N[C@@H]4CCNC[C@@H]4F)cccc3n2CC(F)(F)F)no1)c1cn[nH]c1` (racemic) [Compound 191B, (+/−)-N-[(3R,4S)-3-fluoropiperidin-4-yl]-2-(5-{[methyl(1H-pyrazol-4-yl)amino]methyl}-1,2,4-oxadiazol-3-yl)-1-(2,2,2-trifluoroethyl)-1H-indol-4-amine]: the “Y220C SC150 (μM)” value is reported as “** (** = 0.1 μM ≤ SC150 < 0.5 μM)”.
The result for `CN1CC[C@@H](Nc2cccc3c2cc(-c2nc(CNC(=O)c4cccs4)no2)n3CC(F)(F)F)[C@@H](F)C1` (racemic) [Compound 277B, (+/−)-N-{[5-(4-{[(3R,4S)-3-fluoro-1-methylpiperidin-4-yl]amino}-1-(2,2,2-trifluoroethyl)-1H-indol-2-yl)-1,2,4-oxadiazol-3-yl]methyl}thiophene-2-carboxamide] reads “* (* = 0 μM ≤ SC150 < 0.1 μM)”; that for `CN1CCC(n2ccc(C(=O)NCc3nc(-c4cc5c(N[C@@H]6CCN(C)C[C@@H]6F)cccc5n4CC(F)(F)F)no3)c2)CC1` [Compound 363B, N-{[3-(4-{[(3S,4R)-3-fluoro-1-methylpiperidin-4-yl]amino)-1-(2,2,2-trifluoroethyl)-1H-indol-2-yl)-1,2,4-oxadiazol-5-yl]methyl)-1-(1-methylpiperidin-4-yl)-1H-pyrrole-3-carboxamide], “* (* = 0 μM ≤ SC150 < 0.1 μM)”.
The entry for `CN1CCC(Nc2cccc3c2cc(-c2nnc(CNC(=O)C4CC4(F)F)s2)n3CC(F)(F)F)CC1` (racemic) [Compound 32B, (+/−)-2,2-difluoro-N-[(5-{4-[(1-methylpiperidin-4-yl)amino]-1-(2,2,2-trifluoroethyl)-1H-indol-2-yl}-1,3,4-thiadiazol-2-yl)methyl]cyclopropane-1-carboxamide] is “** (** = 0.1 μM ≤ SC150 < 0.5 μM)”; for `CN1CC[C@@H](Nc2cccc3c2cc(-c2nnc(CNC(=O)c4ccn(C5(C)CCOCC5)c4)s2)n3CC(F)(F)F)[C@@H](F)C1` [Compound 287B, N-{[5-(4-{[(3S,4R)-3-fluoro-1-methylpiperidin-4-yl]amino}-1-(2,2,2-trifluoroethyl)-1H-indol-2-yl)-1,3,4-thiadiazol-2-yl]methyl}-1-(4-methyloxan-4-yl)-1H-pyrrole-3-carboxamide] it is “* (* = 0 μM ≤ SC150 < 0.1 μM)”.
The entry for `CN1CC[C@@H](Nc2cccc3c2cc(-c2noc(CNC(=O)c4ccc(C(C)(C)C#N)s4)n2)n3CC(F)(F)F)[C@@H](F)C1` [Compound 442B, 5-(1-cyano-1-methylethyl)-N-{[3-(4-{[(3S,4R)-3-fluoro-1-methylpiperidin-4-yl]amino}-1-(2,2,2-trifluoroethyl)-1H-indol-2-yl)-1,2,4-oxadiazol-5-yl]methyl}thiophene-2-carboxamide] is “* (* = 0 μM ≤ SC150 < 0.1 μM)”; for `CN1CC[C@@H](Nc2cccc3c2cc(-c2ncc(CNc4ccccc4)s2)n3CC(F)(F)F)[C@@H](F)C1` (racemic) [Compound 98B, (+/−)-N-[(3R,4S)-3-fluoro-1-methylpiperidin-4-yl]-2-{5-[(phenylamino)methyl]-1,3-thiazol-2-yl}-1-(2,2,2-trifluoroethyl)-1H-indol-4-amine] it is “* (* = 0 μM ≤ SC150 < 0.1 μM)”.
On to `CN1CC[C@@H](Nc2cccc3c2cc(-c2noc(CNC(=O)c4ccn(C(C)(C)CO)c4)n2)n3CC(F)(F)F)[C@@H](F)C1` [Compound 441B], for which the “Y220C SC150 (μM)” value is listed as “* (* = 0 μM ≤ SC150 < 0.1 μM)”.
The result for `CN(C)C[C@@H]1C[C@H]1C(=O)NCc1nc(-c2cc3c(N[C@@H]4CCN(C)C[C@@H]4F)cccc3n2CC(F)(F)F)no1` [Compound 264B, (1R,2R)-2-[(dimethylamino)methyl]-N-{[3-(4-{[(3S,4R)-3-fluoro-1-methylpiperidin-4-yl]amino}-1-(2,2,2-trifluoroethyl)-1H-indol-2-yl)-1,2,4-oxadiazol-5-yl]methyl}cyclopropane-1-carboxamide] reads “* (* = 0 μM ≤ SC150 < 0.1 μM)”.

These data come from patent US11807644B2 (PMV Pharmaceuticals, Inc., priority 2020, dated 2023).
